Experimental data published in US20050050594A1, “Tryptophan synthase as a site of herbicide action” (priority 1999, published 2005).
Like-named read-outs stand apart in the source and are kept apart here. Marks after values point to notes of the source that are not given here.

Assays:
[1] = molecular target: T1, Arabidopsis TS enzyme (Arabidopsis thaliana, UniProt Q42529); assay: TSα assay with recombinant plant TSα and TSβ expressed in E. coli; assay type: biochemical; settings: inhibitor 82 uM; pAC 758 (1.5 ug) + pAC 755 (3 ug)
T1 construct: GST (N, cleaved yes); made in house; host or cells: E. coli DH5α (pGEX-2T constructs)
T1 sequence (Q42529 with tags, fused parts or gaps): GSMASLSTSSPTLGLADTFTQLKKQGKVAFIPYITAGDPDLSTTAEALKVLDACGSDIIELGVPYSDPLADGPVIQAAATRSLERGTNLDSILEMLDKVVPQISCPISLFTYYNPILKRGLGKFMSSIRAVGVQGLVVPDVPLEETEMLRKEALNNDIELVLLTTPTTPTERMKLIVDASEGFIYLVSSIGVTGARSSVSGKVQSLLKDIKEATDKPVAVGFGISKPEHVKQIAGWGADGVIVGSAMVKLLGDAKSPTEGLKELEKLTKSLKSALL
T1 sequence (P14671 with tags, fused parts or gaps partner): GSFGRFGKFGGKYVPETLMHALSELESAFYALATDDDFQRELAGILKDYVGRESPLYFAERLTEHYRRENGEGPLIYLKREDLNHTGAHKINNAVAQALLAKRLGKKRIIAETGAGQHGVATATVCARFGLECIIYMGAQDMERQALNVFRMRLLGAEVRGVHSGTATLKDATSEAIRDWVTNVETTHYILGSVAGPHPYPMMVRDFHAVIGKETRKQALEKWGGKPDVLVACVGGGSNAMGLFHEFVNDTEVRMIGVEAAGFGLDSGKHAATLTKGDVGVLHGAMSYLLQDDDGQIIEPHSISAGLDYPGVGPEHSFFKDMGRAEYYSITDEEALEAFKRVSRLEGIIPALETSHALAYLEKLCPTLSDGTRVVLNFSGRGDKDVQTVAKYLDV
Experimental: The plant TS proteins were expressed as fusion proteins with glutathione transferase (GST) to facilitate purification. After purification, the GST protein was cleaved off with thrombin as described above before the plant TS assays were performed. After thrombin cleavage, both TSα and TSβ-subunit proteins retained a Gly-Ser residue on the N-terminal of the protein in addition to the TS sequence. […]
The TSα enzyme assay was conducted as described in Example 3 for Salmonella TSα.
Specifically, phenylthiophosphonic acid compounds were used. The TSα assay conditions were as described for Salmonella TSα in Example 3 except that recombinant plant proteins were used instead of the Salmonella enzyme.

[2] = tested on: a variety of dicotyledonous and monocotyledonous plants; assay: Postemergence greenhouse herbicidal test; assay type: in vivo; settings: post emergence greenhouse test, 4 kg/ha
Experimental: The herbicidal activity of the compounds was tested as described in the U.S. Pat. No. 5,635,449. […] In the tests, seedling plants are grown in jiffy flats for about two weeks. The test compounds are dispersed in 50/50 acetone/water mixtures containing 0.5% TWEEN®20, a polyoxyethylene sorbitan monolaurate surfactant of Atlas Chemical Industries, in sufficient quantities to provide the equivalent of about 1.0 kg to 8.0 kg per hectare of test compound when applied to the plants through a spray nozzle operating at 40 psi for a predetermined time. After spraying, the plants are placed on greenhouse benches and are cared for in the usual manner, commensurate with conventional greenhouse practices. From four to five weeks after treatment, the seedling plants are examined and rate according to the rating system set forth below.

[3] = molecular target: T2, Salmonella typhimurium tryptophan synthase holoenzyme (α2β2), TSα reaction (Salmonella typhimurium, UniProt P00929); assay: Inhibition of tryptophan synthase by the TSα reaction, microtiter kinetic coupled enzyme assay; assay type: biochemical
T2 construct: made in house; host or cells: E. coli strain CB149pSTB7
T2 sequence (P00929 whole entry): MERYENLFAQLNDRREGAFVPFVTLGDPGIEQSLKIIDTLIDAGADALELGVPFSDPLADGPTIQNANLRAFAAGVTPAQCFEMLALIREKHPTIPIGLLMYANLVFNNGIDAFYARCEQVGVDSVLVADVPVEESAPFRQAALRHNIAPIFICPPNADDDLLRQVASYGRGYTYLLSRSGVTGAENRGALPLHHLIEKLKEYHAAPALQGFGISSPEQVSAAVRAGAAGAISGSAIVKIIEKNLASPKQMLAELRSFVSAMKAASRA
T2 sequence (P0A2K1 2-397, further chain): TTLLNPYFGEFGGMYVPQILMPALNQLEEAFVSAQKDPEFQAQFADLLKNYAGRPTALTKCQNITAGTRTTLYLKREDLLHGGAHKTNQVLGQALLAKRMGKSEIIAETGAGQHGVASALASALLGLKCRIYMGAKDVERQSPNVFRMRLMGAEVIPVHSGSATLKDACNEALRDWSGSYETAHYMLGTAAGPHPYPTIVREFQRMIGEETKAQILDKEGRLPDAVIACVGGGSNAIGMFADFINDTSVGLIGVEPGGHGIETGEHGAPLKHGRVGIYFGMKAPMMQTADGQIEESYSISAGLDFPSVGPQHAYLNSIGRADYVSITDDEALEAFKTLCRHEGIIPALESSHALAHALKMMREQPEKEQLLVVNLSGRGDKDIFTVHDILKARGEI
Description: Inhibitors of TS were identified by their ability to inhibit the production of glyceraldehyde-3-P by the TSα reaction of the Salmonella typhimurium holoenzyme (α2β2) in the presence of a limiting amount of indole-3-glycerolphosphate and an excess of serine
The assay was developed as a new microtiter plate kinetic enzyme assay based on the combined methods of Creighton (EurJBch 13:1-10, 1970) and Creighton and Yanofsky (JBC 241:980, 1966) with modifications. The rate of glyceraldehyde production was measured as the linear […] (spectrophotometric absorbance at 340 nm) in the presence of glyceraldehyde-3-phosphate dehydrogenase in a coupled enzyme assay.
The assay solution contained a test inhibitor compound, 50 mM Tris-Cl (pH 7.8), 6 mM sodium arsenate, 5 μg/ml pyridoxal phosphate, 0.5 mM DTT, 0.18M NaCl, 60 mM serine, 1.6 mM NAD+, 8 e.u./ml yeast glyceraldehyde-3-phosphate dehydrogenase (Sigma, Catalog #G2647; Kirschner et al., Eur J Bch, 1975, 60:513 and approximately 1.5 e.u. Salmonella TS. 100 μM IGP was added to start the reaction, which was run at 37° C. and using 300 μl per assay in a microtiter plate.
The substrate IGP was used at 1.5 to 2 times its Km concentration to enhance the likelihood of identifying weak inhibitors, binding at the substrate binding site. This approach to identifying enzyme inhibitors was novel, since an excess of all substrates, (at least 5-times the Km value of each), is conventionally used in the measurement of enzyme activity.
Potential inhibitors were evaluated by adding 100 μM inhibitor (equimolar to substrate IGP):or less, in a 1:1 dilution series down from 100 μM, until the inhibition measured was less than 15%. Reaction rates at Vmax were compared in the presence and absence of inhibitors.
In addition, some weaker inhibitors were identified following preincubation of the inhibitor with the TS assay mix for 24 hrs prior to the addition of IGP. The identifying weaker inhibitors is to aid in a quantitative structure activity relationship (QSAR) evaluation, or to identify new herbicidal inhibitor leads. The previously known inhibitor IPP was used as a standard in all tests, where the I50 for IPP was 1-2 uM.

[4] = molecular target: TSα subunit; settings: TSα subunit reaction; cited from earlier work
[5] = tested on: TSβ (Spinacea enzyme); assay: TSβ assay with partially purified spinach enzyme; assay type: biochemical, Spinacea oleracea; set-up: key: the increase in the number of “+” corresponds to the increase of inhibition; +++++: the increase in the number of “+” corresponds to the increase of inhibition; +++++++: the increase in the number of “+” corresponds to the increase of inhibition; settings: determined qualitatively
Experimental: The assay was conducted in microfuge tubes by the TSβ reaction (indole+L-serine→L-tryptophan+H2O). 100 μL of extract was mixed with 150 μL of 0.4 mM indole, 80 mM serine, 0.03 mM PLP, 0.1 M Tris-Cl buffer pH 7.8, containing 7.5 μL of saturated NaCl. The mixture was incubated at 21° C. for increasing time intervals, from 10 min to several hours. The reaction was terminated by adding 25 μL 1 N NaOH, then 1 mL toluene with mixing, and then centifuging in a microfuge 2 min at 10,000×G to partition remaining indole into the toluene phase and away from the enzyme. Remaining indole was subsequently partitioned into the indole reagent phase and reacted with dimethylaminobenzaldehyde: 500 μL of the toluene layer from the microfuge tubes was mixed with 1 ml of the indole reagent in another tube and allowed to separate for 20 min, then the lower layer was carefully pipetted into a cuvette and its absorbance measured at 540 nm. This part of the assay was conducted as known in the art.
A unique microtiter plate method was also developed to streamline the partitioning steps and data collection. First, the TSβ reaction was performed as above in microfuge tubes. […] The plate was covered by a mylar sheet (to protect the plate reader and avoid evaporation) and absorbance was monitored on the plate reader at 535 nm. […]
TS was partially purified from spinach for use in the TSβ assay. The greatest degree of purification was achieved by homogenizing the tissue, preparing the 30-50% ammonium sulfate fraction and freezing it, thawing it, and applying the dissolved precipitate to an FPLC column (Waters SW300, Waters Corporation, Franklin, Mass.) to separate the TS activity (measured as TSβ) from the bulk of the protein. […] Because of the low yield of the assay of partially purified plant TS, endogenous enzyme was measured in crude extracts or in enzyme preparations involving one or two purification steps. […]

With `O=P(O)(O)OCCCc1c[nH]c2ccccc12` [Compound 1, indole-3-propanol phosphate, reference compound] the “TSα activity, % of control” value [1] was 35.9 % of control, the “TSα activity, relative Vmax” value [1] was 2.223 mOD/min and the Herbicidal Activity [2] was “inactive”. It also gave an IC50 ([3]; I50 TS, TSα reaction of the highly purified Salmonella typhimiurium holoenzyme) of 5000 nM, an IC50 ([3]; I50 for IPP used as a standard in all tests, TSα reaction, 100 μM IGP) of 1000 to 2000 nM and an IC50 ([3]; TS inhibition I50, TSα reaction, Salmonella holoenzyme, 30 min at 37° C., 100 μM IGP) of 2000 nM. The Ki [4] was 15 µM.

With `Cc1ccc(SCCCCP(=O)(O)O)c(N)c1` [Phosphonic acid,-{4-[(2-amino-p-tolyl)thio]butyl}-] the “TSβ (Spinacea enzyme), relative activity” value [5] was “+++++++*” and the IC50 ([3]; TSα activity (Salmonella enzyme) I50) was 1000 nM.

With “Phosphonic acid, {4-[(o-aminophenyl)thio]butyl}-, compound with cyclohexylamine (1:2)” the “TSβ (Spinacea enzyme), relative activity” value [5] was “+++++”, the IC50 ([3]; TSα reaction, Salmonella holoenzyme, 30 min at 37° C., 100 μM IGP, read-out: TS inhibition I50) was 400 nM and the IC50 ([3]; read-out: TSα activity (Salmonella enzyme) I50) was 550 nM.
